A short description of data set [1]: Stability at normal conditions. The data set is classed as physicochemical.
The target of another data set is E. coli RNA polymerase (Escherichia coli, UniProt P0A8T7). The data set is described as follows: RNA polymerase inhibition, radioisotope (3H UTP) labelling transcription assay with calf thymus DNA. It counts as biochemical. The note with it: 0.8 μM of 3 with 0.4 μM E. coli RNA polymerase, incubated 15 min, dialysed overnight; native enzyme count = 100%. Here is the method: In a typical experiment, the course of transcription of calf thymus DNA by E. coli RNA polymerase was monitored in the presence and absence of the redox system 3. The enzyme aliquot after admixing with 3 was incubated for 15 minutes and then dialyzed overnight. A general transcription assay was then carried out in a medium, which contained ^3H UTP in addition to other nucleotides. The amount of radioactive UTP (uridine triphaspate) incorporated in the transcribed RNA was monitored by scintillation counter and the count, when compared to that obtained on using native enzyme gave the percentage loss of activity.
A mixture containing 0.8 μM solution of 3 (5 μL from 8 μM stock in methanol) and 0.4 μM of E. coli RNA polymerase (5 μl from 4 μM stock) in 1×transcription buffer ^a (5 μL) and 35 μL of milliQ water was incubated for 15 min, and dialysed ^b overnight, 4×Transcription assay mixture ^c (10 μL) was diluted with 10 μL of milliQ water and admixed with 20 μL of treated and dialyzed enzyme. The mixture was incubated for 20 minutes and spotted on to a DE81 filter paper strip ^d, which was pre-coated with EDTA to arrest further transcription. The filter paper strips were allowed to air dry for three hours, washed successively with 5% Na2HPO4 solution (3×200 mL, 10 min. each), distilled water (2×200 mL, 5 min. each) and then with ethanol (2×75 mL). […]

Each structure is given as a SMILES string.

E. coli RNA polymerase, sequence (P0A8T7 whole entry): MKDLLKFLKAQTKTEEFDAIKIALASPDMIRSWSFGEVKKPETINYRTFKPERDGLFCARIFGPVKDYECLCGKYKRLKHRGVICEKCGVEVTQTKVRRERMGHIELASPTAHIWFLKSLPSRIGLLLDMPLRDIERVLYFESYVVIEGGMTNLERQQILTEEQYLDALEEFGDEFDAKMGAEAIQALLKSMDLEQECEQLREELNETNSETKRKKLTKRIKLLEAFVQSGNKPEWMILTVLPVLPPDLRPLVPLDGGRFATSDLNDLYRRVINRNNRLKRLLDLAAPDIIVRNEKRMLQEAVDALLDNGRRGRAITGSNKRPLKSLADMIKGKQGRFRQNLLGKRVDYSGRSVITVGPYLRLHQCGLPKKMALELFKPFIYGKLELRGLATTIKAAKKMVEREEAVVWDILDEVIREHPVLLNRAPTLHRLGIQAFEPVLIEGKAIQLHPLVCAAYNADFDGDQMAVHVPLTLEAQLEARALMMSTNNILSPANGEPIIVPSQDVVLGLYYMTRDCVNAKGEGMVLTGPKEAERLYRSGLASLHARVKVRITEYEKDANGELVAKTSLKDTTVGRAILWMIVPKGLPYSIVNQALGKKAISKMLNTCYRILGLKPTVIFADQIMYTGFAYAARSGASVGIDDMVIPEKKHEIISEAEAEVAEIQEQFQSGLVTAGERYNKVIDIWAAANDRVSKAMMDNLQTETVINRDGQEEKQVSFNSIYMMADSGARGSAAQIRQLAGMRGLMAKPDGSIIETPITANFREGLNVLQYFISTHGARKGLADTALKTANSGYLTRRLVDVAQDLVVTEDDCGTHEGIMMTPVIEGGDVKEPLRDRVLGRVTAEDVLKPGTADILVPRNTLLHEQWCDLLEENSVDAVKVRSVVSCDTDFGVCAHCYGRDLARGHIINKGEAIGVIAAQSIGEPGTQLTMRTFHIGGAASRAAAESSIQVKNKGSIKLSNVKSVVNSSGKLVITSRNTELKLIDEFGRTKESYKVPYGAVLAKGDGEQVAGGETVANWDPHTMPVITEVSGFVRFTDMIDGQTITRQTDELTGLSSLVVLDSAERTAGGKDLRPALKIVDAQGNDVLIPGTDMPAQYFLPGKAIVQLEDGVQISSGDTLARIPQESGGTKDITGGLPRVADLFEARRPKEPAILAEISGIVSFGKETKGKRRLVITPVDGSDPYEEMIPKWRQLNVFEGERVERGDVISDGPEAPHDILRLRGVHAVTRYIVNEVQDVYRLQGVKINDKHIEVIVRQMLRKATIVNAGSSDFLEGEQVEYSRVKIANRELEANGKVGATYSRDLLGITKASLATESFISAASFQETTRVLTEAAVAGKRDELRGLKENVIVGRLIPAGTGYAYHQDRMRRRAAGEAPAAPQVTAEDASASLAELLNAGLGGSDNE
E. coli RNA polymerase, sequence (P0A8V2 whole entry partner): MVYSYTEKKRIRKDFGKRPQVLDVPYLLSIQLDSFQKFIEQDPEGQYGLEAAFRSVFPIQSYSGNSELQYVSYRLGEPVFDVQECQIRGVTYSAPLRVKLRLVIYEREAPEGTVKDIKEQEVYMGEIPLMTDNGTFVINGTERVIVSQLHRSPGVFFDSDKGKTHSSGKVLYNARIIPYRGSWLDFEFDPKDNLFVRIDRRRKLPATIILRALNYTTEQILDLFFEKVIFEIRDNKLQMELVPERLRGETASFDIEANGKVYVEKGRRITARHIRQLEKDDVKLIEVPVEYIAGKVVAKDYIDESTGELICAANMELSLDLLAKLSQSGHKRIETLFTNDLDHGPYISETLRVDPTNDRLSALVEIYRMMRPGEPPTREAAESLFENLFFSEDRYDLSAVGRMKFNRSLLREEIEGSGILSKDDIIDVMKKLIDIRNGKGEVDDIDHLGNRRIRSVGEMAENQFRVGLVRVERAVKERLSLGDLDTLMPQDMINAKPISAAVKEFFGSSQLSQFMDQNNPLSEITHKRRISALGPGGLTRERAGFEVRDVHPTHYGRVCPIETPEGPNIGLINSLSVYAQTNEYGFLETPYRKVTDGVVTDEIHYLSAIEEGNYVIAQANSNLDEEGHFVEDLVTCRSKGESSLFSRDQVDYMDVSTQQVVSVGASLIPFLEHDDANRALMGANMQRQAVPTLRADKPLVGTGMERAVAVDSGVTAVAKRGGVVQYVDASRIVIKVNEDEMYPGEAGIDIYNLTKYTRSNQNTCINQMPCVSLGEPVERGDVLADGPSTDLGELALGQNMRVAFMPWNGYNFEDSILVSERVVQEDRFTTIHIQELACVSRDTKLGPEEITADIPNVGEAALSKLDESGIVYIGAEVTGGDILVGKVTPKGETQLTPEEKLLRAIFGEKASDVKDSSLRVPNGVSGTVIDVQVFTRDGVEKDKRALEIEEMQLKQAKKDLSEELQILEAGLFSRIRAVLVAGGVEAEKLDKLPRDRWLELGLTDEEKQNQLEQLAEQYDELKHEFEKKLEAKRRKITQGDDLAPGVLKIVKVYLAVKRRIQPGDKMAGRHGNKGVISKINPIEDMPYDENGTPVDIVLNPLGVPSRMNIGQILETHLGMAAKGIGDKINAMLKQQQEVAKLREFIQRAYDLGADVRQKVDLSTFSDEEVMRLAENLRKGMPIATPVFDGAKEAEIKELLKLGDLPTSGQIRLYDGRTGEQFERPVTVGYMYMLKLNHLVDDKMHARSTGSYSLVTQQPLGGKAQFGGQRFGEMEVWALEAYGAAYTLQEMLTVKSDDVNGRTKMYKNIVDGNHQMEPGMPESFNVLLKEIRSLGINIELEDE
E. coli RNA polymerase, sequence (P0A7Z4 whole entry partner): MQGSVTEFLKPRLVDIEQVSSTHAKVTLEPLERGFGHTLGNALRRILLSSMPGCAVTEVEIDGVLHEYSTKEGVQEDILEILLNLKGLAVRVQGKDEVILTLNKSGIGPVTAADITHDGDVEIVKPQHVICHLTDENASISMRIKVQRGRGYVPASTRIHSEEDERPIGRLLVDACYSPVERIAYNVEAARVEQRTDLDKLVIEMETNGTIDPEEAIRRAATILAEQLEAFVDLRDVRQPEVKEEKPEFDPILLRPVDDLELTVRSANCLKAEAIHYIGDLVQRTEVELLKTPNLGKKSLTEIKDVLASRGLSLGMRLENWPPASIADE
E. coli RNA polymerase, sequence (P00579 whole entry partner): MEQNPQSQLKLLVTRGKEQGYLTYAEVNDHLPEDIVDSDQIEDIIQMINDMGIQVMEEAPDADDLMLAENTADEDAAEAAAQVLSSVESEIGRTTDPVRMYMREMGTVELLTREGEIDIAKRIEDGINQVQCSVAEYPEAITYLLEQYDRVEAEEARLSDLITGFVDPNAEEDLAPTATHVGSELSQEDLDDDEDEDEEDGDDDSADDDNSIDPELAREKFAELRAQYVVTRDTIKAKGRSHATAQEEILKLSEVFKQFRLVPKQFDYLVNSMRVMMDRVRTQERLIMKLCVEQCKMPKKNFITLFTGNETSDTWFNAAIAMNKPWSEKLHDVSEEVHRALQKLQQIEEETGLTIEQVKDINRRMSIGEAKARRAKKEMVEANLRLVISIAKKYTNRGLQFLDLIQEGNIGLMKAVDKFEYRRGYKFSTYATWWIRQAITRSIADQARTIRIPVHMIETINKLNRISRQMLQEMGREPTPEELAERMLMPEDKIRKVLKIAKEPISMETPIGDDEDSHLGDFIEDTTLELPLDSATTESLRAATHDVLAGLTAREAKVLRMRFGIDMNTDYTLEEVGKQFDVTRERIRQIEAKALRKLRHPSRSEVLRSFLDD

As for `COC(=O)C(Cc1cnc[nH]1)n1sc2ccccc2c1=O` [compound 3, benziso-N(L-histidine methylester)-thiazolone], in data set [1], the stability result is listed as “stable at normal conditions”. Further, on E. coli RNA polymerase, the “activity compared to the native enzyme” value is recorded as 53% and the inhibition of activity is reported as 47%.

Source of the values: patent publication US6350879B1, “Benziso-N (L-histidine methylester)-thiazolone, process for the preparation thereof, and use thereof for RNA polymerase inhibition” (Council of Scientific and Industrial Research, priority 2000, dated 2002).
